# Residues, ends and D or L forms follow the SMILES beside them. *: point of attachment. Fmoc = O=C(OCC1c2ccccc2-c2ccccc21)*
# Columns and labels:
# [1] = Emulsion formation by aromatic peptide amphiphiles (fluorescence microscopy, FITC label); type: physicochemical; conditions: chloroform / phosphate buffer pH 8; 10 mM peptide
# Method: (§1) (the volume ratio of buffer solution to chloroform is altered from 1:9, 3:7, 5:5, 7:3, to 9:1, total volume was always 1 mL), after hand-shaking for 5 seconds emulsions form in vials. For SEM, IR, stability, average particle size, critical emulsion concentration and demulsification measurements, the volume ratio of buffer solution to chloroform was fixed at 7:3. The concentration of all aromatic peptide amphiphiles studied (Fmoc-YA, Fmoc-YS, Pyr-YL, Fmoc-FF and Fmoc-FFF) was 10 mM, except for in the determination of the critical emulsion concentration (0.1-10 mM) and demulsification measurements (2 mM).
# [2] = type: physicochemical
# Method: To further increase the hydrophobicity, di- and tri-phenylalanine were tested as the peptide sequences (Fmoc-FF and Fmoc-FFF). […] Replacing the Fmoc group with pyrene, amphiphiles and the emulsion systems are inherently endowed with fluorescent properties. […] There is the clear expectation, based upon the results presented that it should be possible to change the peptide sequences and aromatic moieties to further to optimize and functionalize the emulsion systems.
# [3] = Stability of chloroform-in-water emulsions (time, heat, salts) versus SDS; type: physicochemical; conditions: 10 mM
# Method: The top images show freshly prepared emulsions and the bottom images show emulsions incubated for 2 weeks. […] The top images show freshly prepared emulsions and the bottom images show emulsions heated at 60° C. for 3 hours. […] The top images show freshly prepared emulsions and the bottom images show emulsions incubated for 24 hours.
# as §1
# [4] = Partitioning of peptides between water, chloroform and the water/chloroform interface (UV-Vis); type: physicochemical; conditions: water/chloroform biphasic system
# From the text: (the volume ratio of buffer solution to chloroform is altered from 1:9, 3:7, 5:5, 7:3, to 9:1), after manual agitation for 5 seconds emulsions form in vials, as FIG. 2a shown. […] In the images shown, the milky layers are emulsions and the transparent layers above and below are the aqueous and chloroform phase, respectively. UV-Vis was used to determine the amount of Fmoc-YL that remained in water phase and transferred to chloroform. Fluorescein isothiocyanate (FITC) was used to label the aqueous phase in the emulsion layers for imaging by fluorescence microscopy.
# High resolution mass spectra (HRMS) were recorded on a Thermo Electron Exactive. 400.1 (1H) NMR spectra were recorded on Brucker Avance 400 spectrometer at room temperature using perdeuterated solvents as internal standards. The emulsion droplets were characterized by fluorescence microscopy. The devices were mounted on an inverted microscope (AXIO Observer A1, Zeiss) and images were acquired using a EMCCD LucaR camera (Andor Technologies). Images (using brightfield and fluorescence microscopy) were acquired using Zeiss ×20 dry objective and the appropriate filter set for the fluorophore being imaged. Image was analyzed using ImageJ.
# [5] = Gel formation in buffer solution and chloroform; type: physicochemical; conditions: 10 mM in 0.6 M sodium phosphate buffer pH 8, no enzyme
# alkaline phosphatase = molecular target: T1, alkaline phosphatase (Bos taurus, UniProt P19111); experiment: Dephosphorylation of Fmoc-YpL to Fmoc-YL by alkaline phosphatase (reversed phase HPLC); type: biochemical, bovine; conditions: 10 mM, buffer pH 8
# T1 construct: purchased Sigma Aldrich; host or cells: Pichia pastoris
# Method: Enzymatic Conversion of Fmoc-YpL to Fmoc-YL.
# Fmoc-Tyr(PO(NMe2)2-OH (537.55 g·mol^−1) was purchased from Novabiochem. Fmoc-Tyr-OH (403.43 g·mol^−1), L-Leucine tert-butyl hydrochloride (223.74 g·mol^−1) and alkaline phosphatase from bovine, expressed in Pichia pastoris (5000 U·mg^−1protein, 20 mgprotein·mL^−1, 0.049 mL, Apparent molar weight 160 kDa) were supplied by Sigma Aldrich. One enzyme unit corresponds to the quantity of alkaline phosphatase hydrolysing 1 μmol of 4-nitrophenyl phosphate per minute at pH 9.8 and 37° C.
# 10 mM of synthesised Fmoc-YpL was prepared in 950 μL of 0.6 M sodium phosphate buffer pH 8 and immediately added 50 μL of alkaline phosphatase (0.0555 U·μL^−1, or 55.53 U·mL^−1 enzymatic concentration), vortexed and subject to ultra sounds at room temperature. All characterisation was done after 24 hours except when stated otherwise. For the Fmoc-YpL precursor, the preparation was the same except no enzyme was added.
# thermolysin = molecular target: T2, thermolysin (Bacillus thermoproteolyticus, UniProt P00800); experiment: Enzymatic demulsification of emulsions by thermolysin; type: biochemical
# T2 sequence (P00800 233-548): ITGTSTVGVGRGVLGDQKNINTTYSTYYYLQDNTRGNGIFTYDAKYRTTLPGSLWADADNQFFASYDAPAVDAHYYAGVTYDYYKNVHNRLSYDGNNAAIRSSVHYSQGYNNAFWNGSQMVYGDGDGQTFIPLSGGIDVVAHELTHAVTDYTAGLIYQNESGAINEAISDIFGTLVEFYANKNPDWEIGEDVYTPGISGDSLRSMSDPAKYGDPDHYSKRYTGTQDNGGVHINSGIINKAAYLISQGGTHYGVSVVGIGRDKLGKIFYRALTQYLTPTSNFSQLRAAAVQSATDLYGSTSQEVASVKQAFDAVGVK
# From the text: Scale bar is 50 μm. […] (c) Optical photographs of vials in which emulsions formed (left) and demulsified (right) in addition of thermolysin.
# Another vital advantage of using peptide self-assembly to stabilize the emulsion systems is the ability to digest the stabilizing film using a suitable enzyme. Proteases, the enzymes that cleave peptide bonds cause disassembly of amphiphiles.
# as §1
# T1 sequence (P19111 20-506): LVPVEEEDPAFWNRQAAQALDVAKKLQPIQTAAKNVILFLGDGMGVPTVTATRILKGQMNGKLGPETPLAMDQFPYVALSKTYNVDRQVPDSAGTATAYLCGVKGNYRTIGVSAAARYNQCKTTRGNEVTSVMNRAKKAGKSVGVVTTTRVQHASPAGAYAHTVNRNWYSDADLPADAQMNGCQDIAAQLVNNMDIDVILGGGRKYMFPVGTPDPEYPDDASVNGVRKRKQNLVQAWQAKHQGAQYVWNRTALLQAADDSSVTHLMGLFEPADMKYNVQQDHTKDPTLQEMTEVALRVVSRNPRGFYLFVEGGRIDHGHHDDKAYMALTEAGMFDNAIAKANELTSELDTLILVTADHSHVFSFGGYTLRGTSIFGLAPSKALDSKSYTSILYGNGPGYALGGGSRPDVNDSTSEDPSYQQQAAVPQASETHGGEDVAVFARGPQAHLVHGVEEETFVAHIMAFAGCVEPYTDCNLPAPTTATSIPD
compound,measurement,setting,value
"O=C(N[C@@H](Cc1ccccc1)C(=O)N[C@@H](Cc1ccccc1)C(=O)N[C@@H](Cc1ccccc1)C(=O)O)OCC1c2ccccc2-c2ccccc21 [Fmoc-FFF, Fmoc-Phe-Phe-Phe-OH] (Fmoc-Phe-Phe-Phe-OH)",type of emulsion formed,[1],formation of water-in-chloroform emulsions
same,solubility in chloroform,[2],do dissolve in chloroform
same,solubility in the water phase,[2],too hydrophobic to dissolve in the water phase
"CCCCCCCCCCCCOS(=O)(=O)[O-].[Na+] [SDS, sodium dodecyl sulfate]",emulsion state after 24 h in salt solution,"[3]; 100 mM phosphate, chloride and thiocyanate solution",phase-separated
same,emulsion state after two weeks at room temperature,[3]; chloroform-in-water,demulsified and phase-separated
Fmoc-tyrosine phosphate-leucine [Fmoc-YpL],Remain in water (%),[4],31.03%
same,Transfer to chloroform (%),[4],0.74%
same,Transfer to interface (%),[4],68.23%
same,gel formation of precursor solution,[5],not able to form a gel
same,time to complete conversion to Fmoc-YL,alkaline phosphatase,≤ 24 h
same,Fmoc-YpL converted into Fmoc-YL,alkaline phosphatase; after 2 hours,approximately 90%
Fmoc-tyrosine-leucine [Fmoc-YL],time for droplets to demulsify and coalesce to bigger droplets after adding thermolysin,"thermolysin; 1 mg·mL^−1 thermolysin, 2 mmol·L^−1 Fmoc-YL",60 s
same,conversion of cleaving reaction catalyzed by thermolysin (HPLC),"thermolysin; after 10 minutes, aqueous media",50%

# Source: US20170188618A1, “STABLE EMULSIONS FROM DIPEPTIDE DERIVATIVES” (UNIVERSITY OF STRATHCLYDE, priority 2014, published 2017)
